These results are taken from the METLIN SMRT retention time set (Domingo-Almenara et al. 2019).

Each structure is given as a SMILES string.

The nature of the data set: gradient 5% acetonitrile 3 min, to 50% in 2 min, to 85% in 15 min, held 3 min, 100 µL/min. Particulars: column: Zorbax Extend-C18 2.1 x 50 mm; eluents: water / acetonitrile, 0.1% formic acid. The procedure, abridged: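 Values are retention times taken from adduct peaks that software picked and an analyst inspected. The pure standards were run as mixtures of ~100 molecules on HPLC linked to a quadrupole time-of-flight mass spectrometer, in positive and negative ionization mode. A Zorbax Extend-C18 column (2.1 × 50 mm, 1.8 μm) was used at 100 μL/min with water and acetonitrile, each including 0.1% formic acid.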
`COc1ccc(OC)c(Nc2c(-c3ccc4c(c3)OCO4)nc3cnccn23)c1` had an RP-LC retention time of 829 s. `CN(C)c1cccc(C(=O)N2CCC3(CC2)N=C(c2ccc(Br)cc2)NO3)c1` came in with an RP-LC retention time of 867 s. For `CCOC(=O)CCNC(=O)N1CCCC(Cn2cnc3cccnc32)C1` (centres undefined) the value was 604 s; for `Cc1nc(SCC(=O)Nc2nc3ccccc3s2)c2c(=O)n(C)c(=O)n(C)c2n1`, 793 s. For `Cc1cc(=O)n(CC(=O)Nc2ccccc2F)c(N2CCc3ccccc3C2)n1` the value was 802 s; for `COc1ccccc1N1CCN(c2cc(SCC(=O)Nc3cccc(SC)c3)ncn2)CC1`, 1020 s; for `c1ccc(C(O[C@@H]2CCCN(CCc3ccc4c(c3)OCO4)C2)c2ccccc2)cc1`, 961 s.

For the compound `Cc1cc(S(=O)(=O)N2C[C@@H](F)C[C@H]2C(=O)N2CCCCC2)ccc1Cl`, the RP-LC retention time was 885 s. For `CCC1CN(CC(=O)NCCN(CC)CC)c2ccccc2S1` (centres undefined) the value was 680 s; for `CCOc1ccc(-c2cc3c(=O)n(Cc4nc(-c5ccccc5OCC)no4)ncn3n2)cc1`, 1180 s. Compound `COc1ccc(C)cc1NC(=O)C1CCN(S(C)(=O)=O)c2cc(C)ccc2O1` (centres undefined) came in with an RP-LC retention time of 1030 s.

`CC(NC(=O)c1c(O)c2cccnc2n(-c2ccccc2)c1=O)c1ccccc1` (centres undefined) had an RP-LC retention time of 1190 s. For `CCc1ccc(N2CC(c3nc(-c4ccc(OC)cc4OC)no3)CC2=O)cc1` (centres undefined) the value was 998 s; for `CC(C)CCNC(=O)N1CCN(Cc2nc3cccnc3n2-c2ccc(F)cc2)CC1`, 667 s. For `COc1ccc(NC(=O)Nc2c(-c3ccc(F)cc3)nc3ccccn23)cc1OC` the value was 629 s.

`CCc1ccccc1N(C)C(=O)C1CCCN(c2ncnc3c2nc2n3CCCCC2)C1` (centres undefined) returned an RP-LC retention time of 909 s. In turn, `Cc1sc2ccn(CC(C)C)c(=O)c2c1C(=O)NC(C)c1ccc(F)cc1` (centres undefined) had an RP-LC retention time of 1030 s.

Turning to `CCCNC(=O)c1nc(N2CCSCC2)c2cnn(C)c2n1`, the RP-LC retention time came to 719 s. Compound `CCN1C(=O)CCc2cc(NC(=O)Cc3ccc(OC)c(Cl)c3)ccc21` registered an RP-LC retention time of 798 s. For `COC(=O)C1=C(CN2CCN(C)CC2)NC(=O)NC1c1ccccc1Cl` (centres undefined) the value was 597 s; for `CCc1noc(NC(C)=O)c1-c1ccc(C)c(S(=O)(=O)N2CCN(c3cc(C)ccc3C)CC2)c1`, 1130 s; for `Cc1ccc(S(=O)(=O)N2CCC(CCC(=O)NCc3ccccc3)CC2)cc1`, 873 s. For `O=C(Nc1ccc(F)cc1)C1CCN(S(=O)(=O)c2cc(C(=O)N3CCCCCC3)cs2)CC1` the value was 920 s; for `Cc1nc(CC(=O)N2CCC(C(N)=O)CC2)cs1`, 646 s.

`CCOC(=O)c1c(C)c(-c2ccccc2)n(CC(=O)N2CCN(c3ccccn3)CC2)c1C` came in with an RP-LC retention time of 729 s. For `CCOC(=O)C(C)Sc1nnc2n1CCN2c1ccc(OC)cc1` (centres undefined) the value was 741 s.

The compound `O=C1NCCCn2cc(S(=O)(=O)Nc3ccccc3)cc21` yielded an RP-LC retention time of 630 s. Take `CCCCCOC(=O)Nc1nc(=O)n([C@@H]2O[C@H](C)[C@H](O)C2O)cc1F` (some centres undefined): the RP-LC retention time amounted to 682 s.

As to `Cc1nn(C)c(C)c1S(=O)(=O)N1[C@H]2CC[C@@H]1c1cnc(-c3ccc(F)cc3)nc1C2`, the RP-LC retention time was found to be 924 s.

Compound `CC1CCCN(C(=O)c2cn(-c3cc(-c4nc(C(C)(C)C)no4)ccn3)cn2)C1` (centres undefined) gave an RP-LC retention time of 1040 s. With `COc1cccc(NC(=O)Cn2c(=O)cc(-c3nc(C(C)C)no3)c3ccccc32)c1`, the RP-LC retention time was determined as 982 s. `C=CCNC(=O)C1CCN(C(=O)Nc2ccc(NC(=O)Nc3ccc(C)cc3C)cc2)CC1` gave an RP-LC retention time of 728 s.

Compound `Cc1sc(NC(=O)Cc2csc(-c3ccccc3)n2)nc1-c1ccccc1` showed an RP-LC retention time of 1160 s.

On to `CCOC(=O)C1=C(CN2CCN(C(C)CC)CC2)NC(=O)NC1c1ccc(F)cc1` (centres undefined), for which the RP-LC retention time amounted to 623 s.

For `COc1ccc(-c2nc3c(C)cccn3c2Nc2ccccc2C)cc1`, the RP-LC retention time stood at 755 s. For `CC1=C(c2cccc(Cl)c2)S(=O)(=O)N=C1N1CCC(NC(=O)C2CCC2)CC1` the value was 840 s; for `CC(=O)NCc1csc(C2CCN(C(=O)COc3ccc(F)cc3)CC2)n1`, 662 s; for `CCC(=O)NC(c1ccc(N(C)C)cc1)c1ccc2cccnc2c1O` (centres undefined), 620 s. For `CCN1C(=O)NC(c2cccc(F)c2)C2=C1CN(CCC(=O)N1CCCC1)C2=O` (centres undefined) the value was 606 s; for `CC1(C)CC(=O)C2=C(C1)N(CC1CCCO1)C(=O)C2(NC(=O)c1ccccc1)C(F)(F)F` (centres undefined), 906 s; for `Cc1cccc(N2CCN(C(=O)C3CCN(c4cncnc4N(C)C)CC3)CC2)c1C`, 756 s. For `O=S(=O)(c1ccc2nncn2c1)N(Cc1cccc(F)c1)c1cccc(F)c1` the value was 851 s; for `Cn1ncc2c(N3CCOCC3)nc(C(=O)NCCc3cccs3)nc21`, 710 s.

Regarding `Cc1csc(NC(=O)c2ccc(Br)cc2)n1`, the RP-LC retention time turned out to be 902 s. `CCc1cc(-c2csc(S(=O)(=O)N3CCN(Cc4ccc5c(c4)OCO5)CC3)c2)on1` showed an RP-LC retention time of 753 s.

In turn, `CN(C)c1nc2cc(C(=O)NCc3ccncc3)sc2n1-c1ccccc1` registered an RP-LC retention time of 1130 s. For `O=C(c1ccc(-c2cccnc2)nc1)N1CCN(c2ccc(F)cc2)CC1`, the RP-LC retention time was 671 s. For `O=C(Cn1c(=O)c(S(=O)(=O)c2ccccc2)cc2ccccc21)NCc1ccco1` the value was 810 s; for `Cc1ccc2nc(C(=O)NCCN3CCCCC3C)cn2c1` (centres undefined), 552 s; for `CSc1ccccc1N1CCN(CCCCCC(=O)NC2CCCc3ccccc32)CC1` (centres undefined), 855 s. For `Cc1nnsc1C(=O)N1CC2CC(C1)c1cccc(=O)n1C2` (centres undefined) the value was 551 s.

For `CCNC(=O)c1cc(C)nc2ccc(C)cc12`, the RP-LC retention time was 568 s.

As to `Cc1cccc(NC(=O)CN2c3ccccc3NC3=C(C(=O)CCC3)C2c2ccco2)c1C` (centres undefined), the RP-LC retention time came out at 851 s. Take `COc1ccc(NC(=O)C2CCN(c3cncnc3N3CCN(C)CC3)CC2)cc1Cl`: the RP-LC retention time is 585 s. For `Cc1[nH]nc(-c2c(C)sc(C)c2S(=O)(=O)NCCCc2ccccc2)c1C` the value was 1130 s; for `Cc1nc2c(NC(=O)c3cccs3)cccn2n1`, 690 s; for `Cc1sc(-c2cc(C(F)(F)F)on2)cc1S(=O)(=O)Nc1ccccc1F`, 1110 s. For `O=S(=O)(Nc1ccc(Cl)cc1)c1c[nH]c2ncccc12`, the RP-LC retention time was 750 s. Take `CC(=O)Nc1nnc(SCc2nnc(-c3ccc4c(c3)OCO4)o2)s1`: the RP-LC retention time was found to be 678 s.
